Results published in paper PMC7751951 (Cancer chemotherapy and pharmacology, 2015).

What was measured:
[1] = single-agent docetaxel 150–235 mg/m^2, children and adolescents with refractory solid tumors; cited from earlier work
[2] = Toxicity, DLT and MTD in phase I trial
[3] = tested on: recurrent or refractory solid tumors; experiment: Tumor response; format: in vivo, human (children and adolescents)
[4] = early clinical trials in adults; cited from earlier work
[5] = Plasma pharmacokinetics of tariquidar alone; format: in vivo, human (children and adolescents); settings: human, intravenous, tariquidar in combination with chemotherapy, at all dose levels
[6] = human, in vivo, 21 days
[7] = adults, 2 mg/kg IV over 30 min; cited from earlier work
Pgp = settings: adults, 2 mg/kg IV over 30 min; rhodamine uptake in CD56+ lymphocytes; cited from earlier work
[8] = tested on: Breast Cancer Resistance Protein (BCRP/ABCG2); settings: cited from earlier work
[9] = tested on: ATPase activity of the Pgp drug efflux pump; settings: introduction statement, no reference given; cited from earlier work
[10] = cited from earlier work

For `CC(=O)O[C@@]12CO[C@@H]1C[C@H](O)[C@@]1(C)C(=O)[C@H](O)C3=C(C)[C@@H](OC(=O)[C@H](O)[C@@H](NC(=O)OC(C)(C)C)c4ccccc4)C[C@@](O)([C@@H](OC(=O)c4ccccc4)[C@H]21)C3(C)C` [Docetaxel], the “platelet counts less than 50,000/μL” value [1] is given as “not observed” and the “participants with grade 3 thrombocytopenia (platelet count ≥10,000, <50,000/μL)” value ([2]; docetaxel in combination with tariquidar, three of nine participants) is given as 33%.

For `COc1cccc2c1C(=O)c1c(O)c3c(c(O)c1C2=O)C[C@@](O)(C(=O)CO)C[C@@H]3O[C@H]1C[C@H](N)[C@H](O)[C@H](C)O1` [Doxorubicin], the Response ([3]; person, metastatic adrenocortical carcinoma, two cycles of tariquidar in combination with doxorubicin) is listed as “partial response”, the “Best response [cycle]” value ([3]; subject 014, rhabdomyosarcoma, with tariquidar 2 mg/kg) is listed as “partial response” and the “increase of systemic exposure in combination with tariquidar” value [4] is listed as 26%.

For `COc1cc2c(cc1OC)CN(CCc1ccc(NC(=O)c3cc(OC)c(OC)cc3NC(=O)c3cnc4ccccc4c3)cc1)CC2` [Tariquidar], the Cmax [5] was greater than 2000 nM, the “tariquidar-related dysgeusia (n = 3), grade” value [6] was 1 and the “tariquidar-related hypotension (n = 2), grade” value [6] was 2. The “tariquidar-related nausea (n = 1), grade” value [6] was 1, the “tariquidar-related peripheral edema (n = 1), grade” value [6] was 2 and the “tariquidar-related pruritus (n = 1), grade” value [6] was 1. For the same compound, the “area under the concentration time curve (AUC0–48)” value [7] was 12.6 µM·h, the clearance [7] was 160 mL/min/m^2 and the half-life [7] was 26 h. The “time for which maximum inhibition of Pgp was maintained” value (Pgp) was 24 h, the “inhibition of Breast Cancer Resistance Protein (BCRP/ABCG2)” value [8] was “inhibit” and the “effect on ATPase activity of the Pgp drug efflux pump” value [9] was “inhibits”. The tolerability in adults [10] was “well tolerated” and the “maximum tolerated dose of tariquidar” value ([2]; escalation up to 2 mg/kg) was “No maximum tolerated dose was achieved”.

In the case of `CCC1=C[C@@H]2CN(C1)Cc1c([nH]c3ccccc13)[C@@](C(=O)OC)(c1cc3c(cc1OC)N(C)[C@H]1[C@@](O)(C(=O)OC)[C@H](OC(C)=O)[C@]4(CC)C=CCN5CC[C@]31[C@@H]54)C2` [Vinorelbine], the “Best response [cycle]” value ([3]; subject 009, pancreatoblastoma, with tariquidar 1.5 mg/kg) is listed as “complete radiographic response” and the “change in pharmacokinetics in combination with tariquidar” value [4] is listed as “No change”.

For `CC(=O)O[C@H]1C(=O)[C@@]2(C)[C@H]([C@H](OC(=O)c3ccccc3)[C@]3(O)C[C@H](OC(=O)[C@H](O)[C@@H](NC(=O)c4ccccc4)c4ccccc4)C(C)=C1C3(C)C)[C@]1(OC(C)=O)CO[C@@H]1C[C@@H]2O` [paclitaxel], the “increase of systemic exposure in combination with tariquidar” value [4] is given as 44%.
